Values of other authors, collected in publication PMC8583936, “Machine Learning Assisted Approach for Finding Novel High Activity Agonists of Human Ectopic Olfactory Receptors” (International Journal of Molecular Sciences, 2021).
Where two headings read alike, the source gives them in different places.

Tests used:
[1] = molecular target: T1, OR1A1 (Homo sapiens, UniProt Q9P1Q5); conditions: cited from earlier work
T1 sequence (Q9P1Q5 1-309): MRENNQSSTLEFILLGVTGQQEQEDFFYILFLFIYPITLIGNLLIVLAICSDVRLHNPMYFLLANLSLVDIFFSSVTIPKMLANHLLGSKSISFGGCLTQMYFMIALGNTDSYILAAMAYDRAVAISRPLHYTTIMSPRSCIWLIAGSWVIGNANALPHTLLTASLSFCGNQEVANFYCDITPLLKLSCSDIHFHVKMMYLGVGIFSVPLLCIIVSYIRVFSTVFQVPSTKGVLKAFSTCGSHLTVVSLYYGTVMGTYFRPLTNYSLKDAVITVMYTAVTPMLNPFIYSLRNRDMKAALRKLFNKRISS

[2] = molecular target: T2, OR2W1 (Homo sapiens, UniProt Q9Y3N9); conditions: cited from earlier work
T2 sequence (Q9Y3N9 1-320): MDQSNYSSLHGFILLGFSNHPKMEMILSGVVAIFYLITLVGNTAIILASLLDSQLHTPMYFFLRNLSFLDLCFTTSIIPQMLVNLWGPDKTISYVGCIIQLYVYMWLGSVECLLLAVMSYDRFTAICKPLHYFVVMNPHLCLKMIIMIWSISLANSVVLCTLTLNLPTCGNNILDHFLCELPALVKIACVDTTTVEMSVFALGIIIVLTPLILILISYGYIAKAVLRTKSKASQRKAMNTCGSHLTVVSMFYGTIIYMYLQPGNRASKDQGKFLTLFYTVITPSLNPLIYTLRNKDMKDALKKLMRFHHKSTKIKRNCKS

[3] = Table S1, ref Supplement references [1]-[9] as printed after each odorant name
[4] = Table S2, ref Supplement references [2]-[12] as printed after each odorant name

Structure (SMILES)	Class (agonist / non-agonist / conflicting info.) for OR1A1 [1, 3]	Class (agonist / non-agonist / antagonist / conflicting info.) for OR2W1 [2, 4]	Class (agonist / non-agonist / conflicting info.) for OR1A1 [1]	Class (agonist / non-agonist / antagonist / conflicting info.) for OR2W1 [2]
C=CC(O)CCCCC (racemic) [(R/S)-octen-3-ol]	Agonist	Agonist	–	–
CCCCC1CCC(=O)O1 (racemic) [(R/S)-γ-Octalactone]	Non-agonist	Agonist	–	–
CCC(C(=O)O)c1ccccc1 (single isomer, unassigned; (+)) [(+)-2-Phenylbutyric acid]	Non-agonist	Non-agonist	–	–
CC1CC[C@H](C(C)C)[C@@H](O)C1 (single isomer, unassigned; (+)) [(+)-Menthol]	Non-agonist	Conflicting info.	–	–
CCC(C(=O)O)c1ccccc1 (single isomer, unassigned; (-)) [(-)-2-Phenylbutyric acid]	Non-agonist	Non-agonist	–	–
C=C(C)C1CC=C(C)C(=O)C1 (single isomer, unassigned; (-)) [(-)-Carvone]	Agonist	Agonist	–	–
CC1=CCC2CC1C2(C)C (single isomer, unassigned; (-)) [(-)-alpha-Pinene]	Non-agonist	Non-agonist	–	–
C=C1CCC2CC1C2(C)C (single isomer, unassigned; (-)) [(-)-beta-Pinene]	Non-agonist	Non-agonist	–	–
CCCCCCCC(OC)OC [1,1-dimethoxy-octane]	Non-agonist	Agonist	–	–
CC(S)CCS (stereo not shown) [1,3-butane dithiol]	Non-agonist	Non-agonist	–	–
CC12CCC(CC1)C(C)(C)O2 [1,8-cineole]	Non-agonist	Non-agonist	–	–
CCCCO [1-butanol]	Non-agonist	Non-agonist	–	–
CCCCCCCCCCO [1-decanol]	Agonist	Agonist	–	–
C=CC(=O)CCCCC [1-octen-3-one]	Conflicting info.	Non-agonist	–	–
CC1=CCC(C(C)(C)S)CC1 (stereo not shown) [1-p-Menthene-8-thiol]	Non-agonist	Non-agonist	–	–
CCCO [1-propanol]	Non-agonist	Non-agonist	–	–
CCCCCCCCCCCO [1-undecanol]	Non-agonist	Non-agonist	–	–
CC(=O)c1ccccc1N [2'-aminoacetophenone]	–	–	Non-agonist	Non-agonist
CCc1ncc(C)nc1CC [2,3-dietyl-5-methylpyrazine]	Non-agonist	Non-agonist	–	–
CCCC(=O)C(C)=O [2,3-hexanedione]	Non-agonist	Agonist	–	–
CCC(=O)C(C)=O [2,3-pentanedione]	–	–	Non-agonist	Non-agonist
CC1=NC(C)SC1C (stereo not shown) [2,4,5-trimethyl-2,5-dihydro-1,3-thiazole]	Non-agonist	Antagonist	–	–
Cc1ccc(O)c(C)c1 [2,4-dimethylphenol]	–	–	Non-agonist	Non-agonist
CCCC/C=C\C=C\C=O [2,4-nonadienal, (2e,4z)-]	Non-agonist	Non-agonist	–	–
COc1cccc(OC)c1O [2,6-dimethoxyphenol]	Non-agonist	Non-agonist	–	–
Cc1cccc(C)c1O [2,6-dimethylphenol]	–	–	Non-agonist	Non-agonist
